ChEMBL document CHEMBL4680328, “Design, synthesis and evaluation of PD-L1 peptide antagonists as new anticancer agents for immunotherapy” (Bioorg Med Chem, 2021)
Active and inactive are the calls of the source. No cut-off for these calls is given here.

What was measured:
[1] = biological target: T1, Programmed cell death 1 ligand 1 (Homo sapiens, UniProt Q9NZQ7); experiment: Antagonist activity at human PDL1 assessed as inhibition of human PD1 interaction with human PDL1 by ELISA
[2] = biological target: T1, Programmed cell death 1 ligand 1; experiment: Antagonist activity at PDL1 overexpressing in IFN-gamma pretreated human LoVo cells assessed as restoration of human Jurkat T cell activation by measuring induction of IL-2 production at 10 ug/ml incubated for 24 hrs by ELISA; conditions: filed as antagonist, dose 10.0 µg/ml
[3] = system: CT26; experiment: Antitumor activity against mouse CT26 cells xenografted in BALB/c mouse assessed as reduction in tumor growth at 10 mg/kg, ip administered for 7 days and measured on day 7 by caliper analysis; format: functional, organism-based; conditions: time 7.0 day
[4] = Toxicity in BALB/c mouse xenografted with mouse CT26 cells assessed as reduction in body weight at 10 mg/kg, ip administered for 7 days and measured on day 7; format: organism-based; conditions: in vivo, 168 h, time 7 day
[5] = system: CT26; experiment: Antitumor activity against mouse CT26 cells assessed as reduction in cell viability at 10 to 100 ug/ml incubated for 24 to 72 hrs by MTT assay; format: functional, cell-based; conditions: dose 10-100 µg/ml, time 24-72 hrs
[6] = Toxicity in BALB/c mouse xenografted with mouse CT26 cells assessed as effect on kidney damage at 10 mg/kg, ip administered for 7 days and measured on day 7 by hematoxylin and eosin staining based assay; format: organism-based; conditions: in vivo, 168 h, time 7 day
[7] = Toxicity in BALB/c mouse xenografted with mouse CT26 cells assessed as effect on spleen damage at 10 mg/kg, ip administered for 7 days and measured on day 7 by hematoxylin and eosin staining based assay; format: organism-based; conditions: in vivo, 168 h, time 7 day
[8] = Toxicity in BALB/c mouse xenografted with mouse CT26 cells assessed as effect on liver damage at 10 mg/kg, ip administered for 7 days and measured on day 7 by hematoxylin and eosin staining based assay; format: organism-based; conditions: in vivo, 168 h, time 7 day
[9] = Toxicity in BALB/c mouse xenografted with mouse CT26 cells assessed as GOT level in blood at 10 mg/kg, ip administered for 7 days and measured on day 7 (reference value: 93 +/- 8 U/L); format: organism-based; conditions: in vivo, 168 h, time 7 day
[10] = Toxicity in BALB/c mouse xenografted with mouse CT26 cells assessed as GPT level in blood at 10 mg/kg, ip administered for 7 days and measured on day 7 (reference value: 50 +/- 7 U/L); format: organism-based; conditions: in vivo, 168 h, time 7 day
[11] = Toxicity in BALB/c mouse xenografted with mouse CT26 cells assessed as BUN level in blood at 10 mg/kg, ip administered for 7 days and measured on day 7 (reference value: 76 +/- 5 mg/dl); format: organism-based; conditions: in vivo, 168 h, time 7 day

T1 sequence (Q9NZQ7 whole entry): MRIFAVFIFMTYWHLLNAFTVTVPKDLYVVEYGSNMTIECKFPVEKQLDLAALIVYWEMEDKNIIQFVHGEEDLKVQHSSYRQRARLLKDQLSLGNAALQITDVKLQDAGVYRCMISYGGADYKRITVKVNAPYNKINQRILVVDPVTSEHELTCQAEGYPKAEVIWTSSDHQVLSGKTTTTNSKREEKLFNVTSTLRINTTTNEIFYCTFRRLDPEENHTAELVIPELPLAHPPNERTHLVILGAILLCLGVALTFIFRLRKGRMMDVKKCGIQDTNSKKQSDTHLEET

Compound: H-CGAISLAPKAQIKES-OH
- IC50 [1]: 19.2 µM

Compound: H-GAISLAPKLQIND-OH
- IC50 [1]: 4.4 µM
- IL-2 induction activity [2]: Active
- TGI [3]: inactive
- Activity [4]: Non-Toxic
- Activity [5]: inactive

Compound: H-CGAISLAPKLQINES-OH
- IC50 [1]: 80.7 µM

Compound: CC[C@H](C)[C@H](NC(=O)[C@H](C)NC(=O)CN)C(=O)N[C@@H](CO)C(=O)N[C@@H](CC(C)C)C(=O)N[C@@H](C)C(=O)N1CCC[C@H]1C(=O)N[C@@H](CCCCN)C(=O)N[C@@H](CC(C)C)C(=O)N[C@@H](CCC(N)=O)C(=O)N[C@H](C(=O)N[C@@H](CC(N)=O)C(=O)N[C@@H](CCC(=O)O)C(=O)O)[C@@H](C)CC
- IC50 [1]: 5.6 µM
- IL-2 induction activity [2]: Active
- TGI [3]: inactive
- Activity [4]: Non-Toxic
- Activity [5]: inactive

Compound: CC[C@H](C)[C@@H]1NC(=O)[C@H](C)NC(=O)CNC(=O)CNC(=O)[C@@H](CCC(=O)O)NC(=O)[C@H](CC(N)=O)NC(=O)[C@H]([C@@H](C)CC)NC(=O)[C@H](CCC(N)=O)NC(=O)[C@H](CC(C)C)NC(=O)[C@H](CCCCN)NC(=O)[C@@H]2CCCN2C(=O)[C@H](C)NC(=O)[C@H](CC(C)C)NC(=O)[C@H](CO)NC1=O
- IC50 [1]: 0.71 µM
- IL-2 induction activity [2]: Active
- TGI [3]: Active
- Activity [4]: Non-Toxic
- Activity [5]: inactive
- Activity [6]: Non-Toxic
- Activity [7]: Non-Toxic
- Activity [8]: Non-Toxic
- Activity [9]: 97 U/L
- Activity [10]: 51 U/L
- Activity [11]: 81 mg/dL

Compound: CC[C@H](C)[C@H](NC(=O)[C@H](C)NC(=O)CN)C(=O)N[C@@H](CO)C(=O)N[C@@H](CC(C)C)C(=O)N[C@@H](C)C(=O)N1CCC[C@H]1C(=O)N[C@@H](CCCCN)C(=O)N[C@@H](CC(C)C)C(=O)N[C@@H](CCC(N)=O)C(=O)N[C@H](C(=O)N[C@@H](CC(N)=O)C(=O)N[C@H](CCC(=O)O)C(=O)O)[C@@H](C)CC
- IC50 [1]: 1.56 µM
- IL-2 induction activity [2]: Active
- TGI [3]: Active
- Activity [4]: Non-Toxic
- Activity [5]: inactive
- Activity [6]: Non-Toxic
- Activity [7]: Non-Toxic
- Activity [8]: Non-Toxic
- Activity [9]: 82 U/L
- Activity [10]: 54 U/L
- Activity [11]: 69 mg/dL

Compound: H-CGAISLAPKLQIKES-OH
- IC50 [1]: 93.5 µM
